Where two headings read alike, the source gives them in different places.
Legend:
[1] = tested on: Male Institute of Cancer Research (ICR) mice; assay: Tail-flick test, blockade of nicotine-induced antinociception; format: in vivo; details: mice, pretreatment 15 min before nicotine 2.5 mg/kg s.c., tested 5 min after nicotine; for ED50: Mus musculus, 5 min, read-out: AD50 Tail-flick
Text: (§1) Animals: Male Institute of Cancer Research (ICR) mice (weighing 20-25 g) obtained from Harlan (Indianapolis, Ind.) were used throughout the study. Animals were housed in an Association for Assessment and Accreditation of Laboratory Animal Care-approved facility, were placed in groups of six, and had free access to food and water. Studies were approved by the Institutional Animal Care and Use Committee of Virginia Commonwealth University.
Tail-Flick Test: Antinociception for pain mediated at the spinal level was assessed by the tail-flick method of D'Amour, F. E.; Smith, D. L., J. Pharmacol. Exp. Ther. 1941, 72, 74-79, incorporated herein by reference in its entirety. In brief, mice were lightly restrained while a radiant heat source was shone onto the upper portion of the tail. To minimize tissue damage, a maximum latency of 10 s was imposed. Latency to remove the tail from the heat source was recorded for each animal. […] Antinociceptive response was calculated as the percentage of maximum possible effect (% MPE), where % MPE=[(test control)/(10 control)]×100.

[2] = tested on: Male Institute of Cancer Research (ICR) mice; assay: Body temperature, antagonism of nicotine-induced hypothermia; format: in vivo; details: pretreatment 15 min before nicotine 2.5 mg/kg s.c., tested 30 min after nicotine
Protocol: as §1
Body Temperature: Rectal temperature was measured by a thermistor probe (inserted 24 mm) and digital thermometer (YSI Inc., Yellow Springs, Ohio). Readings were taken just before and 30 min after subcutaneous injection of either saline or 2.5 mg/kg nicotine. The difference in rectal temperature before and after treatment was calculated for each mouse. The ambient temperature of the laboratory varied from 21 to 24° C. from day to day. […] The animals were then tested 30 min after administration of a subcutaneous dose of 2.5 mg/kg nicotine.

[3] = tested on: Male Institute of Cancer Research (ICR) mice; assay: Hot-plate test, blockade of nicotine-induced antinociception; format: in vivo; details: pretreatment 15 min before nicotine 2.5 mg/kg s.c., tested 5 min after nicotine; for ED50: Mus musculus, read-out: AD50 Hot-plate
Text: as §1
Hot-Plate Test: Mice were placed into a 10-cm wide glass cylinder on a hot plate (Thermojust Apparatus) maintained at 55° C. for assessment of pain responses mediated at supraspinal levels. To minimize tissue damage, a maximum exposure to the hot plate 40 s was imposed. Measures of control latencies (time until the animal jumped or licked its paws; typically 8-12 s) were done twice for stimuli applied at least 10 min apart for each mouse. Antinociceptive responses after test drug administrations were determined and calculated as the % MPE, where % MPE=[(test latency in s−control latency in s)/(40 s−control latency in s)×100]. Groups of 8 to 12 animals were used for each drug condition. […] The animals were then tested 5 min after administration of a subcutaneous dose of 2.5 mg/kg nicotine.

[4] = biological target: T1, human DA transporters [(h)DAT] (Homo sapiens, UniProt Q01959); assay: Inhibition of [3H]dopamine uptake into HEK293 cells stably expressing hDAT; format: cell-based
T1 construct: expressed in transfected cells; host or cells: HEK-293
Text: (§2) Cell Lines and Culture: Human embryonic kidney (HEK-293) cells stably expressing human DAT, NET or SERT were maintained as previously described in Eshleman, A. J.; Carmolli, M.; Cumbay, M.; Martens, C. R.; Neve, K. A.; Janowsky, A., J. Pharmacol. Exp. Ther. 1999, 289, (2), 877-885. Use was made of several human cell lines that naturally or heterologously express specific, functional, human nAChR subtypes. Cells of the TE671/RD line naturally expresses muscle-type nAChR (a1β1γδ- or α1*-nAChR), and SH-SY5Y neuroblastoma cells naturally expresses autonomic α3β4*-nAChRs (containing α3, β4, probably α5, and sometimes β2 subunits). Different clones of SH-EP1 epithelial cell lines have been engineered to heterologously express either α4β2-nAChR, which are thought to be the most abundant, high affinity nicotine-binding nAChR in mammalian brain, or α4β4-nAChR, another possible brain nAChR subtype (SH-EP1-hα4β2 or α4β4 cells, respectively). These cells were maintained as low passage number (1-26 from our frozen stocks) cultures to ensure stable expression of native or heterologously-expressed nAChR as previously described (see Lukas, R. J.; Fryer, J. D.; Eaton, J. B.; L., G. C., Some methods for studies of nicotinic acetylcholine receptor pharmacology, in Nicotinic receptors and the Nervous System, Levine, E. D., Ed. CRC Press: Boca Raton, 2002; pp 3-27, incorporated herein by reference in its entirety). Cells were passaged once weekly by splitting just-confluent cultures 1/300 (TE671/RD), 1/5 (SH-SY5Y), or 1/20 (transfected SH-EP1) in serum-supplemented medium to maintain log-phase growth.
(§3) See, for example, Damaj, M. I.; Carroll, F. I.; Eaton, J. B.; Navarro, H. A.; Blough, B. E.; Mirza, S.; Lukas, R. J.; Martin, B. R., Mol. Pharmacol. 2004, 66, (3), 675-682 and Eshleman, A. J.; Carmolli, M.; Cumbay, M.; Martens, C. R.; Neve, K. A.; Janowsky, A., J. Pharmacol. Exp. Ther. 1999, 289, (2), 877-885, both incorporated by reference herein in their entireties.

α4β2-nAChR = biological target: T2, α4β2-nAChR (Homo sapiens, UniProt P17787+P43681); assay: 86Rb+ efflux nAChR functional assay, SH-EP1-hα4β2 cells; format: cell-based; details: EC80-EC90 carbamylcholine; SH-EP1-hα4β2; parentheses = S.E.M. as multiplication/division factor; read-out: nAChR inhibition IC50 α4β2
T2 construct: expressed in transfected cells; host or cells: SH-EP1 epithelial cells (SH-EP1-hα4β2)
Text: as §2
(§4) After cells had adhered (generally overnight, but no sooner than 4 h later), the medium was removed and replaced with 250 μL per well of complete medium supplemented with ˜350,000 cpm of ^86Rb^+ (PerkinElmer Life and Analytical Sciences, Boston, Mass.) and counted at 40% efficiency using Cerenkov counting (TriCarb 1900 liquid scintillation analyzer[…]; PerkinElmer Life Sciences).
(§5) After at least 4 h and typically overnight, ^86Rb^+ efflux was measured using the “flip-plate” technique. See Lukas, R. J.; Fryer, J. D.; Eaton, J. B.; L., G. C., Some methods for studies of nicotinic acetylcholine receptor pharmacology, in Nicotinic receptors and the Nervous System, Levine, E. D., Ed. CRC Press: Boca Raton, 2002; pp 3-27, incorporated herein by reference in its entirety). Briefly, after aspiration of the bulk of ^86Rb^+ loading medium from each well of the “cell plate,” each well containing cells was rinsed 3× with 2 mL of fresh ^86Rb^+ efflux buffer (130 mM NaCl, 5.4 mM KCl, 2 mM CaCl2, 5 mM glucose, 50 mM HEPES, pH 7.4) to remove extracellular ^86Rb^+. Following removal of residual rinse buffer by aspiration, the flip-plate technique was used again to simultaneously introduce 1.5 mL of fresh efflux buffer containing drugs of choice at indicated final concentrations from a 24-well “efflux/drug plate” into the wells of the cell plate. After a 5 min incubation, the solution was “flipped” back into the efflux/drug plate, and any remaining buffer in the cell plate was removed by aspiration. Cells remaining in the cell plate were lysed and suspended by addition of 1.5 mL of 0.1 M NaOH, 0.1% sodium dodecyl sulfate to each well.
(§6) Similarly, the sum of ^86Rb^+ in cell plates and efflux/drug plates also determined the efficiency of ^86Rb^+ loading (the percentage of applied ^86Rb^+ actually loaded into cells).
(§7) Specific efflux was then taken as the difference in control samples between total and non-specific ^86Rb^+ efflux. Any intrinsic agonist activity of test drugs was ascertained using samples containing test drug only at different concentrations and was normalized, after subtraction of non-specific efflux, to specific efflux in test drug-free, control samples.

[5] = biological target: T3, 5HT transporters [(h)SERT] (Homo sapiens, UniProt P31645); assay: Inhibition of [3H]serotonin uptake into HEK293 cells stably expressing hSERT; format: cell-based
T3 construct: expressed in transfected cells; host or cells: HEK-293
Text: as §2, §3

[6] = biological target: T4, muscle-type nAChR (α1β1γδ- or α1*-nAChR) (Homo sapiens, UniProt P02708+P07510+P11230+Q07001); assay: 86Rb+ efflux nAChR functional assay, TE671/RD cells; format: cell-based; details: nAChR inhibition IC50 α1*β1, EC80-EC90 carbamylcholine, parentheses = S.E.M. as multiplication/division factor
T4 construct: Cells of the TE671/RD line naturally expresses muscle-type nAChR; endogenous in cells; host or cells: TE671/RD cells
Text: as §2, §4, §5, §6, §7

NE transporters [h(NET)] = biological target: T5, NE transporters [h(NET)] (Homo sapiens, UniProt P23975); assay: Inhibition of [3H]norepinephrine uptake into HEK293 cells stably expressing hNET; format: cell-based; details: HEK293-hNET; mean ± standard error of three independent experiments; read-out: monoamine uptake inhibition IC50 [3H]NE
T5 construct: expressed in transfected cells; host or cells: HEK-293
Text: as §2, §3

α4β4-nAChR = biological target: T6, α4β4-nAChR (Homo sapiens, UniProt P30926+P43681); assay: 86Rb+ efflux nAChR functional assay, SH-EP1-hα4β4 cells; format: cell-based; details: EC80-EC90 carbamylcholine, parentheses = S.E.M. as multiplication/division factor, read-out: nAChR inhibition IC50 α4β4
T6 construct: expressed in transfected cells; host or cells: SH-EP1 epithelial cells (SH-EP1-hα4β4)
Text: as §2, §4, §5, §6, §7

[7] = tested on: Male Institute of Cancer Research (ICR) mice; assay: Locomotor activity, antagonism of nicotine effect; format: in vivo; details: for AD50 Locomotion: pretreatment 15 min before nicotine […] s.c.
Text: as §1
Locomotor Activity: Mice were placed into individual Omnitech photocell activity cages (28×16.5 cm; Omnitech Electronics, Columbus, Ohio) 5 min after subcutaneous administration of either 0.9% saline or nicotine (1.5 mg/kg). Interruptions of the photocell beams (two banks of eight cells each) were then recorded for the next 10 min. Data were expressed as the number of photocell interruptions.

T3 sequence (P31645 whole entry): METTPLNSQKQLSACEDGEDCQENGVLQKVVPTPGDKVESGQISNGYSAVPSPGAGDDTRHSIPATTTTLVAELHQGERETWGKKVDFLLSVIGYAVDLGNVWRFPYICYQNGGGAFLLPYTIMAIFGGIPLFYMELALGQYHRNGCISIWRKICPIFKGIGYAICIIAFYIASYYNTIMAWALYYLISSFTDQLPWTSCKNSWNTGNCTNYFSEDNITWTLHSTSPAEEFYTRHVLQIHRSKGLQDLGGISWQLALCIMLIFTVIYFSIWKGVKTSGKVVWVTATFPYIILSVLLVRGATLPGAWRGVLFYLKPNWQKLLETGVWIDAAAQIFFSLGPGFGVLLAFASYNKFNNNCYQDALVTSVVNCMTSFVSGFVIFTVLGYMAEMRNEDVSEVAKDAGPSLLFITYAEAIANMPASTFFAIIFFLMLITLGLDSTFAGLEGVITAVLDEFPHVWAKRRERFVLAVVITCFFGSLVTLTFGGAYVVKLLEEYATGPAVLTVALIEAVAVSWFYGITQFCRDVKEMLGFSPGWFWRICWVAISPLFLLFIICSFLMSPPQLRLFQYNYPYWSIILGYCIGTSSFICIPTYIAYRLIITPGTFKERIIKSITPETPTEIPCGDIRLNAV
T1 sequence (Q01959 whole entry): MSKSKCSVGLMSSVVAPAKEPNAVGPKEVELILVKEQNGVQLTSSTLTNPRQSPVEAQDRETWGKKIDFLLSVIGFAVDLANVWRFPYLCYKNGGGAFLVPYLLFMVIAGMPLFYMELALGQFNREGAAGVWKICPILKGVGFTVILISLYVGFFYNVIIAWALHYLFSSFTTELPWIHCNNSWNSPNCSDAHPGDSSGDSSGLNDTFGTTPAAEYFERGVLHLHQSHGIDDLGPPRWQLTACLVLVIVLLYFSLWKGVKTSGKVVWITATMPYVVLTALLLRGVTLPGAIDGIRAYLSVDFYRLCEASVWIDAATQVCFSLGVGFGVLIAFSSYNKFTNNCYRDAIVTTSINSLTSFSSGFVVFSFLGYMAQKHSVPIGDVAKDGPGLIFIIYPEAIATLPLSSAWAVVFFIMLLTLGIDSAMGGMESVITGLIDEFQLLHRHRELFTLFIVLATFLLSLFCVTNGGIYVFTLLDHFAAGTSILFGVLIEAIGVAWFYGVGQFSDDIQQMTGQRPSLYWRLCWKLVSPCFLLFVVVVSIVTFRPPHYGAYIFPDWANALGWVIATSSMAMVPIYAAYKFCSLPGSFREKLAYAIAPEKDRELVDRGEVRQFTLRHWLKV
T4 sequence (P02708 21-457): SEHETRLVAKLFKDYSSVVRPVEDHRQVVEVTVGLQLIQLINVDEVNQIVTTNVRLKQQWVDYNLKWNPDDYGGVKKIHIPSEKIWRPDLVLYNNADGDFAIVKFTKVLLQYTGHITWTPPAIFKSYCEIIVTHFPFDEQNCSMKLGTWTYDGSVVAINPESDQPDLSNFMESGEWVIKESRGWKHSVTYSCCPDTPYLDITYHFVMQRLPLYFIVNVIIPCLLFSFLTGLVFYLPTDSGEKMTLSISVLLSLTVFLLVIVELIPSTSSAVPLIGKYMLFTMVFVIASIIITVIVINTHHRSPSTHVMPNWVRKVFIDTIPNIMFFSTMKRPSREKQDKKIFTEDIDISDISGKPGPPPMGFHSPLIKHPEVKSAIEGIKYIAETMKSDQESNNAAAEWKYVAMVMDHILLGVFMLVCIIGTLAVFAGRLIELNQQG
T4 sequence (P11230 24-501): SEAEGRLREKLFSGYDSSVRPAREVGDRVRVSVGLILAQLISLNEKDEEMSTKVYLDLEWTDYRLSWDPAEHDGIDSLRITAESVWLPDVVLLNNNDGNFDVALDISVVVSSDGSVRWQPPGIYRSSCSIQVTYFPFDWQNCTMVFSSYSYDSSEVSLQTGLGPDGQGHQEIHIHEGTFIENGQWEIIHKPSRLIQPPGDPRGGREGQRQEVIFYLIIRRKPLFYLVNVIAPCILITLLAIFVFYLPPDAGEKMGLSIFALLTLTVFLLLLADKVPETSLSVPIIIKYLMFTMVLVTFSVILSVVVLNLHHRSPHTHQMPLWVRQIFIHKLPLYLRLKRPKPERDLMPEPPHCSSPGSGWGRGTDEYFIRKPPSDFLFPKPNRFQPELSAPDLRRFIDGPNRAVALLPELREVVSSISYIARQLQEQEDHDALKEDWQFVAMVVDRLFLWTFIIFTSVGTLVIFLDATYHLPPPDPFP
T4 sequence (P07510 23-517): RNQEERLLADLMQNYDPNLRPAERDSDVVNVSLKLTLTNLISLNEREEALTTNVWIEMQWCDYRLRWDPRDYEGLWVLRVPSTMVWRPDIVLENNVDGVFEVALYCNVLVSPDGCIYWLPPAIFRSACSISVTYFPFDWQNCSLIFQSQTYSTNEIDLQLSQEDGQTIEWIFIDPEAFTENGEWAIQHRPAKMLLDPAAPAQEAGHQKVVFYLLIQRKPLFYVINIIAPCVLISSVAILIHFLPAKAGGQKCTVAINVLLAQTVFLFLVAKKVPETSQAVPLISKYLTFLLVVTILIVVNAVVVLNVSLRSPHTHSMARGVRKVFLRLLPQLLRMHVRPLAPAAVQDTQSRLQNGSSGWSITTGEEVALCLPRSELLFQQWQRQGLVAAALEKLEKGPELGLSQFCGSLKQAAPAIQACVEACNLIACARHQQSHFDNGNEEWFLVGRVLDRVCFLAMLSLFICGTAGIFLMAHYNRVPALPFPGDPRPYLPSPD
T4 sequence (Q07001 22-517): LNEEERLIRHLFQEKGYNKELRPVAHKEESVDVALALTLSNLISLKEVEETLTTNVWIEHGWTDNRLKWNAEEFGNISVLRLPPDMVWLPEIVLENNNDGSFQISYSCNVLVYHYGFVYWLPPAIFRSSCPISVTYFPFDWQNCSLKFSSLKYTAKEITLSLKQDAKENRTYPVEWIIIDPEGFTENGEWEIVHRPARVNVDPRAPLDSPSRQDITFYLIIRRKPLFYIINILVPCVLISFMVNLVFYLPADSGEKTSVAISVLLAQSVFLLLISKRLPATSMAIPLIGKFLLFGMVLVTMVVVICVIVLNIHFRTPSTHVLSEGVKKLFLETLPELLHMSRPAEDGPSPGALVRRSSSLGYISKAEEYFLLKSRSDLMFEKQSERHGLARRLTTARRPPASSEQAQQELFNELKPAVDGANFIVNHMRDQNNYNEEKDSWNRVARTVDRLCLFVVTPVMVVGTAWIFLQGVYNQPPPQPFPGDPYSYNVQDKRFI
T2 sequence (P43681 29-627 limits assumed): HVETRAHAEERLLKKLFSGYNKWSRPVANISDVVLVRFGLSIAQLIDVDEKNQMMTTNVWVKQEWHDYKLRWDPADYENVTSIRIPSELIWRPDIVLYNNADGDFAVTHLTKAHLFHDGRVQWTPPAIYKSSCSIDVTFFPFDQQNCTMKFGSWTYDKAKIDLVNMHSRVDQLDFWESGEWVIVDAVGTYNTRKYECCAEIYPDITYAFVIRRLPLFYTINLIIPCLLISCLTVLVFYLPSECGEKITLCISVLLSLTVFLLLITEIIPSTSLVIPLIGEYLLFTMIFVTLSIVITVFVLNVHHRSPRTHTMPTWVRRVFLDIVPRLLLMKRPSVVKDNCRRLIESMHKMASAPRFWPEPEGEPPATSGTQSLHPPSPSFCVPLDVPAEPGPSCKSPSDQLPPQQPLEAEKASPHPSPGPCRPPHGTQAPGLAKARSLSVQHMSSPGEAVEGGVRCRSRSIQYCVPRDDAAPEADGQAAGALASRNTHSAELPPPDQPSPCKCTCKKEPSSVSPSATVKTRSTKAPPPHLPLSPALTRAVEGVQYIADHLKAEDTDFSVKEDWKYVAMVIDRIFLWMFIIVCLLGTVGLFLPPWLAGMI
T2 sequence (P17787 26-502): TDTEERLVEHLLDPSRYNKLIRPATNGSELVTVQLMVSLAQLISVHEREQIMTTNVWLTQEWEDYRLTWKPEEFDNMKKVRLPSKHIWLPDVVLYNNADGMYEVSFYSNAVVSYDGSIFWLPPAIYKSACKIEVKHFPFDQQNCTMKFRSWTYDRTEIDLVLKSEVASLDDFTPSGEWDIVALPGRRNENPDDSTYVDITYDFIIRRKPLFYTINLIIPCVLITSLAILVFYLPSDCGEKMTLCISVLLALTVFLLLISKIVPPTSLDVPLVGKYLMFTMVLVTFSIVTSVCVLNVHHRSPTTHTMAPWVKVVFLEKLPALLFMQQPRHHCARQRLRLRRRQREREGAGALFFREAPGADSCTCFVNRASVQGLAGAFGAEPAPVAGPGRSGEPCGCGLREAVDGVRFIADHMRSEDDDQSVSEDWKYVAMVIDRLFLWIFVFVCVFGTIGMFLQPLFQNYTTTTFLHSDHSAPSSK
T6 sequence (P43681 29-627 limits assumed): as the sequence (P43681 29-627 limits assumed) above
T6 sequence (P30926 22-498): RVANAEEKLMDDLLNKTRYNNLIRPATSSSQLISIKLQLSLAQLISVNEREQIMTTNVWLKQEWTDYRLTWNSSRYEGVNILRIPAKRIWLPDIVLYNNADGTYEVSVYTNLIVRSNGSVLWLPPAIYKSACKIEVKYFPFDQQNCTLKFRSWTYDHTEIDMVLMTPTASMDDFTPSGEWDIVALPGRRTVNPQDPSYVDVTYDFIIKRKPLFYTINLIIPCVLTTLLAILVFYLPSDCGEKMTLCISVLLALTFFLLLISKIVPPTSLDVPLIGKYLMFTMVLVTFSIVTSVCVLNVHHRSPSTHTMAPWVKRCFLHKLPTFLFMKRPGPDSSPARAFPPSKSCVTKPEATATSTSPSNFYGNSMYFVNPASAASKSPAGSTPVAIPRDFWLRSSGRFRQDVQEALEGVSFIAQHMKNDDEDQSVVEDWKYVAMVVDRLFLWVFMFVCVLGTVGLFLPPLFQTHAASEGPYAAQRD

Compound	ED50 [1] [mg/kg]	AD50 Hypothermia [2]	ED50 [3] [mg/kg]	AD50 Hot-plate [3]	IC50 (α4β2-nAChR) [µM]	IC50 [6] [µM]	IC50 (NE transporters [h(NET)]) [µM]	IC50 (α4β4-nAChR) [µM]	AD50 Locomotion [7]	other results
CC(NC(C)(C)C)C(=O)c1cccc(Cl)c1 (racemic) [Compound 2, (±)-2-tert-butylamino-3′-chloropropiophenone, reference compound]	1.2	9.2 mg/kg	15	15 mg/kg	–	–	–	–	–	AD50 Tail-flick [1]: 1.2 mg/kg; ED50 ([2]; Mus musculus, 0.5 h, read-out: AD50 Hypothermia): 9.2 mg/kg
CC1NC(C)(C)COC1(O)c1cccnc1 (racemic) [Compound 5, 3,5,5-Trimethyl-2-(pyridin-3-yl)morpholin-2-ol]	–	–	–	–	> 100	> 100	> 10	> 100	–	IC50 ([4]; HEK293-hDAT, mean ± standard error of three independent experiments, read-out: monoamine uptake inhibition IC50 [3H]DA): > 10 µM; IC50 [5]: > 10 µM
CC1NC(C)(C)COC1(O)c1ccccn1 (racemic) [Compound 6, 3,5,5-Trimethyl-2-(pyridin-2-yl)morpholin-2-ol]	–	–	–	–	> 100	> 100	7.95 ± 1.8	> 100	–	IC50 [4]: > 10 µM; IC50 ([5]; HEK293-hSERT, mean ± standard error of three independent experiments, read-out: monoamine uptake inhibition IC50 [3H]5HT): > 10 µM
CCC[C@@H]1NC(C)(C)CO[C@@]1(O)c1cccc(Cl)c1 [Compound 4t, (2S,3S)-2-(3-Chlorophenyl)-5,5-dimethyl-3-propyl-morpholin-2-ol]	0.004	IA (IA: AD50 > 15 mg/kg)	–	IA (IA: AD50 > 15 mg/kg)	–	–	–	–	4.7 mg/kg	–
C[C@H]1NC(C)(C)CO[C@]1(O)c1cccc(Cl)c1 [Compound (2R,3R)-4a, (2R,3R)-2-(3-Chlorophenyl)-3,5,5-trimethylmorpholin-2-ol, reference compound]	2.5	IA (IA: AD50 > 15 mg/kg)	10.3	–	–	–	–	–	IA (IA: AD50 > 15 mg/kg)	–
C[C@@H]1NC(C)(C)CO[C@@]1(O)c1cccc(Cl)c1 [Compound (2S,3S)-4a, (2S,3S)-2-(3-Chlorophenyl)-3,5,5-trimethylmorpholin-2-ol, reference compound]	0.2	–	1	1 mg/kg	–	–	–	–	0.9 mg/kg	ED50 ([7]; Mus musculus, pretreatment 15 min before nicotine 1.5 mg/kg s.c., read-out: AD50 Locomotion): 0.9 mg/kg
